ChEMBL document CHEMBL6071176, “Development of Phloroglucinol-Linked Tris-Quaternary Ammonium Salt Antimicrobial Peptide Mimics with Low Cytotoxicity and Broad-Spectrum Antibacterial Activity” (J Med Chem, 2024)
The source made the active and inactive calls. No cut-off for these calls is given here.

Tests used:
Staphylococcus aureus [1] = assay: Antimicrobial activity against Staphylococcus aureus assessed as inhibition of growth incubated for 18 hrs by CLSI guidelines based assay; format: functional
Escherichia coli [2] = assay: Antimicrobial activity against Escherichia coli assessed as inhibition of growth incubated for 18 hrs by CLSI guidelines based assay; format: functional
[3] = Selectivity index, ratio of HC50 for sheep red blood cells to MIC for Staphylococcus aureus; format: toxicity, cell-based, RBC; conditions: read-out: Selectivity Index
Staphylococcus aureus [4] = assay: Antibacterial activity against methicillin-resistant Staphylococcus aureus assessed as inhibition of bacterial growth measured immediately after addition in presence of plasma; format: functional, organism-based
Staphylococcus aureus [5] = assay: Bactericidal activity against Staphylococcus aureus assessed as bacterial killing in presence of 50% plasma; format: functional, organism-based
Staphylococcus aureus [6] = assay: Bactericidal activity against Staphylococcus aureus assessed as bacterial killing in presence of 50% serum; format: functional, organism-based
Staphylococcus aureus [7] = assay: Bactericidal activity against early exponential phase Staphylococcus aureus assessed as bacterial killing at 3 ug/ml incubated for 4 hrs by time-kill assay; format: functional, organism-based; conditions: dose 3.0 µg/ml
Staphylococcus aureus [8] = assay: Bactericidal activity against early exponential phase Staphylococcus aureus assessed as bacterial killing at 3 ug/ml incubated for 12 hrs by time-kill assay; format: functional, organism-based; conditions: dose 3.0 µg/ml
Escherichia coli [9] = assay: Bactericidal activity against early exponential phase Escherichia coli assessed as bacterial killing at 3 ug/ml incubated for 12 hrs by time-kill assay; format: functional, organism-based; conditions: dose 3.0 µg/ml
Staphylococcus aureus [10] = assay: Anti-bacterial activity against 100 times rifampicin induced persistent cells of Staphylococcus aureus assessed as reduction in persistent cells at 32 times of MIC; format: functional
Cell membrane [11] = assay: Induction of Cytoplasmic membrane depolarization in Staphylococcus aureus assessed as increase in fluorescence intensity measured at 6 times of MIC measured after 4 hrs by DiSC3(5) dye-based fluorescence assay; format: subcellular
Staphylococcus aureus [12] = assay: Anti-microbial activity against Staphylococcus aureus assessed as bacterial growth inhibition in presence of LPS (exogenous bacterial cell membrane component) measured after 18 hrs; format: functional, organism-based
Cell membrane [13] = assay: Induction of membrane damage in Escherichia coli assessed as nucleic acid leakage measured at 0.5 to 2 times of MIC by microplate spectrophotometry; format: subcellular; conditions: TDE = time-dependent effect
Staphylococcus aureus [14] = assay: Induction of ROS level in Staphylococcus aureus assessed as increase in intracellular ROS level at 0.125 to 0.5 ug/ml measured after 4.5 hrs by ROS-sensitive fluorescent probe DCF-DA staining based assay; format: functional, organism-based; conditions: dose 0.125-0.5 µg/ml
Staphylococcus aureus [15] = assay: Down-regulation of aspartate/ornithine carbamoyltransferase in Staphylococcus aureus at 0.25 ug/ml and incubated for 4 hrs by Transcriptome analysis; format: functional, organism-based; conditions: dose 0.25 µg/ml
Staphylococcus aureus [16] = assay: Down-regulation of pyridoxal-phosphate-dependent enzyme in Staphylococcus aureus at 0.25 ug/ml and incubated for 4 hrs by Transcriptome analysis; format: functional, organism-based; conditions: dose 0.25 µg/ml
[17] = Toxicity in female SPF Kunming mouse assessed as pathological changes in heart at 200 mg/kg/day, sc measured after 24 hrs by hematoxylin and eosin staining based assay; format: organism-based; conditions: in vivo
[18] = Toxicity in female SPF Kunming mouse assessed as pathological changes in liver at 200 mg/kg/day, sc measured after 24 hrs by hematoxylin and eosin staining based assay; format: organism-based; conditions: in vivo
[19] = Toxicity in female SPF Kunming mouse assessed as change in WBC count at 20 mg/kg/day, ip measured after 24 hrs; format: organism-based; conditions: in vivo
[20] = Toxicity in female SPF Kunming mouse assessed as change in HCT count at 20 mg/kg/day, ip measured after 24 hrs; format: organism-based; conditions: in vivo
[21] = Toxicity in female SPF Kunming mouse assessed as change in CREA level at 20 mg/kg/day, ip measured after 24 hrs; format: organism-based; conditions: in vivo
Staphylococcus aureus [22] = assay: In vivo antibacterial activity against methicillin-resistant Staphylococcus aureus subcutaneously infected in SPF female Kunming mouse model assessed as improvement in inflammatory cell infiltration in skin at 5 to 10 mg/kg/day injected into blister after 6 hrs of infection measured after 6 consecutive treatments by H and E staining based assay; format: functional, organism-based; conditions: dose 5-10 mg/kg/day, route […]

Which MIC (Staphylococcus aureus [1]) does the source give for `CCCCCCCC[N+](C)(C)CCCCOc1cc(OCCCC[N+](C)(C)CCCCCCCC)cc(OCCCC[N+](C)(C)CCCCCCCC)c1.[Br-].[Br-].[Br-]` here?
The MIC was 0.5 µg/mL.

What about the MIC (Escherichia coli [2]) of the same compound?
The MIC was 2 µg/mL.

What about the selectivity ratio [3] of the same compound?
Its selectivity ratio is > 2560.

What about the Activity (Staphylococcus aureus [4]) of the same compound?
Its Activity is “Active”.

What about the Activity (Staphylococcus aureus [5]) of the same compound?
Its Activity is “Active”.

And the Activity (Staphylococcus aureus [6])?
The Activity was “Active”.

And the Activity (Staphylococcus aureus [7])?
The Activity was “Active”.

What about the Activity (Staphylococcus aureus [8]) of the same compound?
The Activity was “Active”.

And the Activity (Escherichia coli [9])?
The Activity was “Active”.

What about the Activity (Staphylococcus aureus [10]) of the same compound?
The Activity was 5.7 log10CFU/ml.

And the Activity (Cell membrane [11])?
Its Activity is “Active”.

And the Activity (Staphylococcus aureus [12])?
Its Activity is “inactive”.

And the Activity (Cell membrane [13])?
Its Activity is “Tde”.

What about the Activity (Staphylococcus aureus [14]) of the same compound?
The Activity was “Active”.

And the Activity (Staphylococcus aureus [15])?
Its Activity is “Active”.

What about the Activity (Staphylococcus aureus [16]) of the same compound?
The Activity was “Active”.

And the Activity [17]?
Its Activity is “Non-Toxic”.

And the Activity [18]?
The Activity was “Non-Toxic”.

And the Activity [19]?
Its Activity is “Non-Toxic”.

And the Activity [20]?
The Activity was “Non-Toxic”.

And the Activity [21]?
Its Activity is “Non-Toxic”.

What about the Activity (Staphylococcus aureus [22]) of the same compound?
The Activity was “Active”.
